The structures appear in SMILES notation.

The test system of data set [1] is HCT-116. The experiment in a line: Antiproliferative activity against human HCT-116 cells expressing MTAP-/- assessed as inhibition of cell proliferation incubated for 4 days by fluorescence based assay. It counts as functional. To be noted: HCT-116, 96 h.
Data set [2] addresses S-adenosylmethionine synthase isoform type-2 (Homo sapiens, UniProt P31153). Briefly: Inhibition of recombinant MAT2A (unknown origin) expressed in baculovirus infected Sf9 insect cells using L-methionine as substrate preincubated for 15 mins followed by substrate addition measured after 60 mins by Kinase-Glo Luminescent assay.
For data set [3], the system named is HCT-116. The experiment in a line: Antiproliferative activity against human HCT-116 cells assessed as inhibition of cell proliferation incubated for 4 days by fluorescence based assay. To be noted: HCT-116, 96 h. The data set is classed as functional.
Data set [4] is described as follows: Cmax in ICR mouse at 10 mg/kg, po via gavage measured for 0.083 to 24 hrs by LC-MS analysis. It counts as ADME, organism-based. To be noted: in vivo. On the set-up: time upper 24 hrs, dose 10 mg/kg, time lower 0.083 hrs, route po.
A short description of data set [5]: Half life in ICR mouse at 10 mg/kg, po via gavage measured for 0.083 to 24 hrs by LC-MS analysis. To be noted: in vivo, time 0.083-24 hrs. It counts as ADME, organism-based.
A short description of data set [6]: AUC in ICR mouse at 10 mg/kg, po via gavage measured for 0.083 to 24 hrs by LC-MS analysis. It counts as ADME, organism-based. On the set-up: dose 10 mg/kg, time upper 24 hrs, time lower 0.083 hrs, route po. To be noted: in vivo.
The nature of data set [7]: Tmax in ICR mouse at 10 mg/kg, po via gavage measured for 0.083 to 24 hrs by LC-MS analysis. The data set is classed as ADME, organism-based. To be noted: in vivo, time 0.083-24 hrs.
Data set [8] in a line: Volume of distribution at steady state in ICR mouse at 1 mg/kg, iv measured for 0.083 to 24 hrs by LC-MS analysis. The data set is classed as ADME, organism-based. To be noted: in vivo, time 0.083-24 hrs, read-out: Vdss.
Data set [9] in a line: AUC in ICR mouse at 1 mg/kg, iv measured for 0.083 to 24 hrs by LC-MS analysis. The data set is classed as ADME, organism-based. On the set-up: time upper 24 hrs, time lower 0.083 hrs, dose 1 mg/kg, route iv. To be noted: in vivo.
Data set [10] in a line: Half life in ICR mouse at 1 mg/kg, iv measured for 0.083 to 24 hrs by LC-MS analysis. The data set is classed as ADME, organism-based. To be noted: in vivo, time 0.083-24 hrs.
A short description of data set [11]: Clearance in ICR mouse at 1 mg/kg, iv measured for 0.083 to 24 hrs by LC-MS analysis. The data set is classed as ADME, organism-based. To be noted: in vivo, time 0.083-24 hrs.
The nature of data set [12]: Oral bioavailability in ICR mouse at 10 mg/kg administered via gavage measured for 0.083 to 24 hrs by LC-MS analysis. The data set is classed as ADME, organism-based. To be noted: in vivo, time 0.083-24 hrs.
For data set [13], the system named is HCT-116. Briefly: Antitumor activity against human HCT-116 cells expressing MTAP-/- xenografted in BALB/c mouse assessed as tumor growth inhibition at 50 mg/kg, po qd measured for 18 days relative to control. It counts as functional. To be noted: HCT-116, 432 h, time 18 day, read-out: TGI. A general note: In xenograft studies the graft and the host belong to different species.

Sequence of S-adenosylmethionine synthase isoform type-2 (P31153 whole entry, canonical isoform): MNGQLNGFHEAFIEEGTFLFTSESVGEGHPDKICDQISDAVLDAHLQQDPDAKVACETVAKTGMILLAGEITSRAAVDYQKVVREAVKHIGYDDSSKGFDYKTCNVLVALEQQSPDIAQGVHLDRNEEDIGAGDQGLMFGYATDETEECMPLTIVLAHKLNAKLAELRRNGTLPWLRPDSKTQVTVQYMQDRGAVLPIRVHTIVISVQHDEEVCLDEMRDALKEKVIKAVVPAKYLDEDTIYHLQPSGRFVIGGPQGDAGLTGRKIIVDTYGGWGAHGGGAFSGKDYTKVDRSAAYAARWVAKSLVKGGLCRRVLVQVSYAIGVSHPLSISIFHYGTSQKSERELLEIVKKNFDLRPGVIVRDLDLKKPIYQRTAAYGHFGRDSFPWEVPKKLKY

As to `CCOc1ncc2cc(-c3ccc4nn5c(c4c3)CN(C)CC5)c(=O)n(-c3ccc(OC(F)F)cc3)c2n1`, the IC50 in data set [1] came out at 56 nM; in data set [2], 20 nM.

Consider `CC(C)Oc1ncc2cc(-c3ccc4nc5n(c4c3)CCN(C)C5)c(=O)n(-c3ccc(OC(F)F)cc3)c2n1`, for which the IC50 in data set [1] was 84 nM; in data set [2] it was 27 nM.

For the molecule `CCOc1ncc2cc(-c3ccc4nn5c(c4c3)C(=O)N(C)CC5)c(=O)n(-c3ccc(OC(F)F)cc3)c2n1`, the results for the IC50 in data set [1] and in data set [2] were 80 nM and 23 nM, respectively.

Take `CCOc1ncc2cc(-c3ccc4nc5n(c4c3)CCN(C)C5)c(=O)n(-c3ccc(OC)nc3)c2n1`: the IC50 in data set [1] came out at 792 nM; in data set [2], 132 nM.

`CCOc1ccc2c(=O)n(-c3ccc4nn5c(c4c3)CN(C)CC5)c(=O)n(-c3ccc(OC(F)F)cc3)c2n1`: the half-maximal inhibitory concentration (IC50) in data set [1] is 82 nM; in [2] it was 28 nM; in data set [3] it was more than 10 µM.

As to `CN1CCn2c(nc3ccc(-c4cc5cnc(N6CCC6)nc5n(-c5ccc(OC(F)F)cc5)c4=O)cc32)C1`, the IC50 in data set [1] was 6120 nM; in data set [2], 324 nM.

For `CCOc1ncc2nc(-c3ccc4nn(C)cc4c3)c(=O)n(-c3ccc(OC(F)F)cc3)c2n1`, the IC50 was 387 nM in data set [1] and 39 nM in [2].

With `CCOc1ncc2cc(-c3ccc4c(c3)nc3n4CCN(C)C3)c(=O)n(-c3ccc(OC(F)F)cc3)c2n1`, the IC50 in data set [1] is 3110 nM; in data set [2] it was 394 nM.

Take `CCOc1ncc2cc(-c3ccc4nc5n(c4c3)CCN(C(C)=O)C5)c(=O)n(-c3ccc(OC(F)F)cc3)c2n1`: the IC50 in data set [1] is 118 nM; in [2], 52 nM.

Consider `Cn1cc2cc(-n3cc4cnc(NCC(F)(F)F)nc4c(-c4ccc(Cl)cc4)c3=O)ccc2n1`, for which the IC50 amounted to 145 nM in data set [1] and 32 nM in data set [2].

As to `CN1CCn2c(nc3ccc(-c4cc5cnc(C6CC6)nc5n(-c5ccc(OC(F)F)cc5)c4=O)cc32)C1`, the IC50 in data set [1] came to 34 nM; in data set [2], 14 nM. In addition, the Cmax in data set [4] is 1740 ng/mL. In data set [5], this molecule had a half-life of 240 min. Further, the exposure (AUC) in data set [6] is 11400 ng·h/mL. Further, in data set [7], the Tmax was 30 min.

For the molecule `CCOc1ncc2cc(-c3ccc4nc5n(c4c3)CCN(C)C5)c(=O)n(-c3ccc(OC(F)F)cc3)c2n1`, the IC50 in [1] worked out at 52 nM; in [2], 18 nM. In data set [8], the Vd is 2.18 L/kg. Moreover, the AUC came out at 990 ng·h/mL in data set [9] and 11500 ng·h/mL in data set [6]. The Cmax in data set [4] was 2300 ng/mL. The half-life in data set [5] was 198 min; in data set [10], 144 min. The molecule further had a clearance in data set [11] of 17.1 mL/min/kg. In addition, the bioavailability in data set [12] is 116%. Further, the Tmax in data set [7] is 49.8 min.

Turning to `CCOc1ccc2cc(-c3ccc4nn(C)cc4c3)c(=O)n(-c3ccc(OC(F)F)cc3)c2c1`, the IC50 in data set [1] was found to be 355 nM; in data set [2], 34 nM.

In the case of `CCOc1ncc2cc(-c3cc4c5c(c3)ncn5CCO4)c(=O)n(-c3ccc(OC(F)F)cc3)c2n1`, the IC50 in data set [1] was 447 nM; in data set [2], 72 nM.

Turning to `COc1ccc(-c2c(Nc3ccccn3)[nH]c3c(C4=CCCCC4)c(-c4ccccc4)nn3c2=O)cc1`, in data set [1], the IC50 was 244 nM. In addition, the inhibition in vivo at 50 mg/kg in data set [13] worked out at 34%.

Regarding `CCOc1ccc2cc(-c3ccc4c(c3)C3(CC3)CO4)c(=O)n(-c3ccc(OC(F)F)cc3)c2c1`, the IC50 in data set [1] came to 315 nM; in data set [2], 63 nM.

Regarding `CCOc1ncc2cc(-c3ccc4nc5n(c4c3)CCN(C)C5)c(=O)n(-c3ccc(Cl)cc3)c2n1`, the IC50 in data set [1] came to 119 nM; in data set [2], 51 nM.

Take `CCOc1ncc2cc(-c3ccc4nc5n(c4c3)CCN(CC3COC3)C5)c(=O)n(-c3ccc(OC(F)F)cc3)c2n1`: the IC50 in [1] is 67 nM; in [2] it was 23 nM.

With `CN1CCn2c(nc3ccc(-c4cc5cnc(N6CCCC6)nc5n(-c5ccc(OC(F)F)cc5)c4=O)cc32)C1`, the results for the IC50 in [1] and in data set [2] were more than 10000 nM and more than 1000 nM, respectively.

Turning to `CCOc1ncc2cc(-c3ccc4nc5n(c4c3)CCN(CC#N)C5)c(=O)n(-c3ccc(OC(F)F)cc3)c2n1`, the IC50 in data set [1] came to 56 nM; in data set [2] it was 20 nM.

On to `CCOc1ncc2cc(-c3ccc4nc5n(c4c3)CCN(C(C)C)C5)c(=O)n(-c3ccc(OC(F)F)cc3)c2n1`, for which the IC50 was 53 nM in data set [1] and 17 nM in [2].

As to `CCOc1ncc2cc(-c3ccc4nc5n(c4c3)CCN(CCOC)C5)c(=O)n(-c3ccc(OC(F)F)cc3)c2n1`, the concentration for half-maximal inhibition (IC50) is 50 nM in data set [1] and 17 nM in [2].

On to `CN1CCn2c(nc3ccc(-c4cc5cnc(OCC(F)F)nc5n(-c5ccc(OC(F)F)cc5)c4=O)cc32)C1`, for which the IC50 in data set [1] was 159 nM; in data set [2], 37 nM.

In the case of `CCNc1ncc2cc(-c3ccc4nc5n(c4c3)CCN(C)C5)c(=O)n(-c3ccc(OC(F)F)cc3)c2n1`, the IC50 in data set [1] was determined as 42 nM; in data set [2], 14 nM. For the same molecule, the highest level in [4] (Cmax) was 1050 ng/mL. Also, the half-life in data set [5] is 174 min. In data set [6], this molecule registered an AUC of 3200 ng·h/mL. In [7], the Tmax worked out at 19.8 min.

As to `CCOc1ncc2cc(-c3ccc4ncn5c4c3OCC5)c(=O)n(-c3ccc(OC(F)F)cc3)c2n1`, the IC50 in [1] was more than 10000 nM; in data set [2], more than 1000 nM.

As for `CN1CCn2c(nc3ccc(-c4cc5cnc(NCC(F)(F)F)nc5n(-c5ccc(OC(F)F)cc5)c4=O)cc32)C1`, the IC50 in data set [1] came out at 166 nM; in [2], 34 nM.

Take `COc1ncc2cc(-c3ccc4nc5n(c4c3)CCN(C)C5)c(=O)n(-c3ccc(OC(F)F)cc3)c2n1`: the results for the IC50 in data set [1] and in [2] were 484 nM and 64 nM, respectively.

`CCOc1ncc2c(n1)n(-c1ccc(OC(F)F)cc1)c(=O)n2Cc1ccc2nn(C)cc2c1`: the half-maximal inhibitory concentration (IC50) is more than 10000 nM in data set [1] and more than 1000 nM in data set [2].

In the case of `CCOc1ncc2cc(-c3ccc4c(c3)OCC3(CCN(C)CC3)O4)c(=O)n(-c3ccc(OC(F)F)cc3)c2n1`, the IC50 is more than 10000 nM in data set [1] and more than 1000 nM in data set [2].

As usually defined, the IC50 is the midpoint of a concentration-inhibition curve. As a reminder, the Cmax is the peak of the concentration-time curve. For orientation: half-life means the time needed for the level to fall by half in the phase considered. The low end stands for fast loss, the high end for slow loss. A word on the AUC: it is concentration integrated over time. A lower AUC goes with low exposure. As usually defined, the Tmax is the time at which the peak concentration occurs. The clearance is the rate of elimination divided by the concentration.
